Results published in patent US12195427B2, “MASP-2 inhibitors and methods of use” (priority 2018, dated 2025).
Structures can show the parent of a compound that is named as a salt. One block for each molecule: values may come before it.

Key:
[1] = target: human α-thrombin (Homo sapiens (Human), UniProt P00734); assay: Enzymatic Assay for Thrombin (Boc-VPR-AMC); format: biochemical
[2] = target: MASP-2 CCP2-SP (Homo sapiens (Human), UniProt O00187); assay: MASP-2 co-crystallization, X-ray crystallography and structure analysis (H-bonds, van der Waals contacts); set-up: van der Waals contact distance, MASP-2 HIS 483 atom CD2 / van der Waals contact distance, MASP-2 HIS 483 atom NE2 / van der Waals contact distance, SER 654 C to compound atom / van der Waals contact distance, SER 654 O to compound atom / van der Waals contact distance, TRP 655 C to compound atom / van der Waals contact distance, MASP-2 GLY 528 atom CA / van der Waals contact distance TRP 655 atom CZ3 / van der Waals contact distance TRP 655 atom N / van der Waals contact distance TRP 655 atom CE3 / van der Waals contact distance GLY 656 atom C / van der Waals contact distance GLY 656 atom CA / van der Waals contact distance GLY 656 atom O / van der Waals contact distance, MASP-2 TYR 607 atom CD1 / van der Waals contact distance, MASP-2 PRO 606 atom O / d(C3,CA1) / d(CA1,N1)2 / d(H4,O1) / d(H4,O2) / d(O1,O2) / d(CA1,O2) / d(CA6,O1) / d(CA6,O2) / d(CA1,C5) / d(O2,H3) / d(N2,C2) / d(CA5,N2) / d(N2,C4) / d(N2,C6) / d(N2,CA3) / d(N2,O3) / d(O4,H2): unit not given beside the values; details: for H-bond distance to MASP-2 GLY 656 atom N: GLY 656 N; for H-bond distance to MASP-2 GLY 656 atom O: GLY 656 O; for H-bond distance to MASP-2 SER 654 atom O: SER 654 O;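 on Ligand-pharmacophore element distance, pharmacophore element C2: distance from averaged pharmacophore element to bound ligand; missing value means element absent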;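 on Ligand-pharmacophore element distance, pharmacophore element C3: distance from averaged pharmacophore element to bound ligand; missing value means element absent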;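 on Ligand-pharmacophore element distance, pharmacophore element C4: distance from averaged pharmacophore element to bound ligand; missing value means element absent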;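 on Ligand-pharmacophore element distance, pharmacophore element C5: distance from averaged pharmacophore element to bound ligand; missing value means element absent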
Procedure, shortened: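 Human MASP-2 CCP2-SP, untagged or 6His-tagged, was expressed in E. coli and crystallized. Crystals were soaked with inhibitor in crystallization solution, flash-cooled in liquid nitrogen, and diffracted with synchrotron X-rays (wavelength 1.0). Structures were solved by molecular replacement from 1Q3X and partially refined.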

[3] = Table A5-1 pharmacophore: distance between elements, S2/S1 region
[4] = Table A5-2 pharmacophore distance, S3/S4 region
[5] = Table A7-1, between pharmacophore elements of the bound compound
[6] = Table A8-6, nearest protein atom in cell to the left

MASP-2 CCP2-SP, sequence (O00187 445-686): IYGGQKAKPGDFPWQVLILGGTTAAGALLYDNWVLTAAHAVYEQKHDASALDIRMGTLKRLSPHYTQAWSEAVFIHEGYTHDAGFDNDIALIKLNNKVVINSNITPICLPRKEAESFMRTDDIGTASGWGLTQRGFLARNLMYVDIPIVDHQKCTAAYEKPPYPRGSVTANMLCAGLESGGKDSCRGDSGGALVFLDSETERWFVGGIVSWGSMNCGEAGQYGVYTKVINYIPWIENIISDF
MASP-2 CCP2-SP, sequence (O00187 364-432 partner): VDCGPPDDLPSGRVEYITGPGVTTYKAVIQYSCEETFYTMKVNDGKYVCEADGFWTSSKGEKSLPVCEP

Ki [1]: > 25 µM
H-bond distance to MASP-2 ASP 627 atom OD1 ([2]; Table A1 (H-Bonds), ASP 627 OD1): 2.99
H-bond distance to MASP-2 ASP 627 atom OD2 ([2]; Table A1 (H-Bonds), ASP 627 OD2): 2.95
H-bond distance to MASP-2 GLN 665 atom O ([2]; Table A1 (H-Bonds), GLN 665 O): 3.31
H-bond distance to MASP-2 GLY 656 atom N ([2]; Table A1 (H-Bonds)): 3.13
H-bond distance to MASP-2 GLY 656 atom O ([2]; Table A1 (H-Bonds)): 2.94
H-bond distance to MASP-2 SER 654 atom O ([2]; Table A1 (H-Bonds)): 2.95
H-bond distance to MASP-2 SER 657 atom O ([2]; Table A1 (H-Bonds), SER 657 O): 2.77
H-bond distance to MASP-2 SER 657 atom OG ([2]; Table A1 (H-Bonds), SER 657 OG): 2.94
van der Waals contact distance, MASP-2 HIS 483 atom CD2 ([2]; Table A2-1): 3.69
van der Waals contact distance, MASP-2 TYR 607 atom CD1 ([2]; Table A2-4): 3.89
van der Waals contact distance, MASP-2 amino acid atom to compound atom ([2]; Table A2-5: TYR 607 (CE1, CE2, OH), PRO 608 (CD, CG), SER 611 (CA)): 3.89
van der Waals contact distance, MASP-2 amino acid atom to compound atom ([2]; Table A2-9, ARG 630, AA atoms CG, CZ): 3.14
van der Waals contact distance, VAL 653 CG1 to compound atom ([2]; Table A2-11): 3.81
van der Waals contact distance TRP 655 atom CZ3 ([2]; Table A2-13, MASP-2 TRP 655 CZ3): 3.84
van der Waals contact distance TRP 655 atom O ([2]; Table A2-13, MASP-2 TRP 655 O): 3.88
Ligand-pharmacophore element distance, pharmacophore element C2 ([2]; Table A4-1, element C2): 1.86
Ligand-pharmacophore element distance, pharmacophore element C3 ([2]; Table A4-1, element C3): 0
Ligand-pharmacophore element distance, pharmacophore element C4 ([2]; Table A4-1, element C4): 0
Ligand-pharmacophore element distance, pharmacophore element C5 ([2]; Table A4-1, element C5): 0
Ligand-pharmacophore element distance, pharmacophore element C6 ([2]; Table A4-1, element C6): 0
Ligand-pharmacophore element distance, pharmacophore element C7 ([2]; Table A4-1, element C7): 0
Ligand-pharmacophore element distance, pharmacophore element CA1 ([2]; Table A4-1, element CA1): 1.27
Ligand-pharmacophore element distance, pharmacophore element CA2 ([2]; Table A4-1, element CA2): 0.8
Ligand-pharmacophore element distance, pharmacophore element CA3 ([2]; Table A4-1, element CA3): 0
Ligand-pharmacophore element distance, pharmacophore element CA4 ([2]; Table A4-1, element CA4): 0
Ligand-pharmacophore element distance, pharmacophore element CA5 ([2]; Table A4-1, element CA5): 0
Ligand-pharmacophore element distance, pharmacophore element CA6 ([2]; Table A4-1, element CA6): 0
d(CA1,N1) [2, 3]: 1.85
d(CA1,O1) [2, 3]: 5.32
d(CA1,O2) [2, 3]: 5.00
d(H4,O1) [2, 3]: 4.89
d(H4,O2) [2, 3]: 4.48
d(O1,O2) [2, 3]: 3.20
d(N2,C2) [2, 4]: 3.70
d(N2,CA2) [2, 4]: 5.88
d(O2,H3) [2, 4]: 4.97
d(O2,N2) [2, 4]: 2.67
a(CA1, O1, O2) ([2]; Table A6-1 pharmacophore angle): 102.43
a(O1, O2, H4) ([2]; Table A6-1 pharmacophore angle): 140.37
A(N1, CA1, O1) a) ([2]; Table A6-1 pharmacophore angle, all compounds with protonatable center N1 except Methyl-amino-pyridine): 176.16
a(O1, O2, H3) ([2]; Table A6-2 pharmacophore angle): 148.70
a(O1, O2, N2) ([2]; Table A6-2 pharmacophore angle): 132.46
a(O2, N2, C2) ([2]; Table A6-2 pharmacophore angle): 139.14
a(O2, N2, CA2) ([2]; Table A6-2 pharmacophore angle): 153.47
Pharmacophore torsion angle a(H4, O1, O2, H3) [2, 5]: 47.74
Pharmacophore torsion angle a(H4, O1, O2, N2) [2, 5]: 121.97
Pharmacophore torsion angle a(N1, CA1, O2, H4) [2, 5]: −131.19
Pharmacophore torsion angle a(O1, H4, O2, CA1) [2, 5]: −89.48
Pharmacophore torsion angle a(O1, O2, N2, C2) [2, 5]: 129.30
Pharmacophore torsion angle a(O1, O2, N2, CA2) ([2]; Table A7-2, between pharmacophore elements of the bound compound): 134.69
Pharmacophore protein distance to MET_658 (first MET_658 column) ([2]; Table A8-6, 6th residue column, nearest protein atom in cell to the left): 1.94
Pharmacophore protein distance to GLY_528 [2, 6]: 3.81
Pharmacophore protein distance to PHE_529 [2, 6]: 2.97
Pharmacophore protein distance to PRO_608 [2, 6]: 3.70
Pharmacophore protein distance to SER_611 [2, 6]: 2.61
Pharmacophore protein distance to TRP_655 ([2]; Table A8-6, pharmacophore elements C6, CA3, O3, H1, nearest protein atom in cell to the left): 3.64
SMILES: C[C@H](NC(=O)[C@H](N)C1Cc2ccccc2C1)C(=O)NCc1ccc2nc(N)[nH]c2c1 [compound 1059]

SMILES: C[C@H](NC(=O)[C@H]1C[C@H](Cc2ccccc2)CN1)C(=O)NCc1cnc2c(c1)c(Cl)cn2C [compound 1450, (2R,4S)-4-Benzyl-N—((S)-1-(((3-chloro-1-methyl-1H-pyrrolo[2,3-b]pyridin-5-yl)methyl)amino)-1-oxopropan-2-yl)pyrrolidine-2-carboxamide Dihydrochloride]
Ki [1]: 2.5 to 10 µM
H-bond distance to MASP-2 GLY 656 atom N ([2]; Table A1 (H-Bonds)): 3.04
H-bond distance to MASP-2 GLY 656 atom O ([2]; Table A1 (H-Bonds)): 2.78
H-bond distance to MASP-2 SER 654 atom O ([2]; Table A1 (H-Bonds)): 2.97
van der Waals contact distance, MASP-2 amino acid atom to compound atom ([2]; Table A2): 3.44
van der Waals contact distance, MASP-2 HIS 483 atom CD2 ([2]; Table A2-1): 3.9
van der Waals contact distance, MASP-2 HIS 483 atom NE2 ([2]; Table A2-1): 3.88
van der Waals contact distance, MASP-2 GLY 528 atom CA ([2]; Table A2-2): 3.89
van der Waals contact distance, SER 654 C to compound atom ([2]; Table A2-11): 3.81
van der Waals contact distance GLY 656 atom CA ([2]; Table A2-13, MASP-2 GLY 656 CA): 3.75
van der Waals contact distance TRP 655 atom N ([2]; Table A2-13, MASP-2 TRP 655 N): 3.66
